Laboratory results published in US12419865B2 (priority 2018, dated 2025).
Where two headings read alike, the source gives them in different places.

Tests used:
[1] = tested on: LASV-p; assay: microbe, parasite or virus in culture; type: cell-based, Lassa (LASV); details: Vesicular stomatitis virus, Vero, read-out: LASV-p EC50
[2] = tested on: MACV-p; assay: organism not typed; type: cell-based, Machupo (MACV); details: Vero, read-out: MACV-p EC50
[3] = tested on: JUNV-p; assay: organism not typed; type: cell-based, Junin (JUNV); details: Vero, read-out: JUNV-p EC50
[4] = tested on: TCRV-p; assay: organism not typed; type: cell-based; details: read-out: TCRV-p EC50
[5] = tested on: VSV-p; assay: microbe, parasite or virus in culture; type: cell-based; details: Vesicular stomatitis virus, Vero, read-out: VSV-p EC50
[6] = tested on: native replicating Tacaribe (TCRV) virus; assay: microbe, parasite or virus in culture; type: cell-based; details: Mammarenavirus tacaribeense, Vero, 120 h, read-out: TCRV EC50
[7] = tested on: replicative LASV; assay: microbe, parasite or virus in culture; type: cell-based, Lassa Virus; details: Mammarenavirus lassaense
[8] = tested on: replicative LASV; assay: microbe, parasite or virus in culture; type: cell-based, Lassa Virus; details: for EC90: Mammarenavirus lassaense
[9] = 1 h, pH 7.4
[10] = 1 h, pH 7.4; remark: listed apart in the source
[11] = 1 h, pH 7.4; remark: listed apart in the source
[12] = 1 h, pH 7.4; remark: listed apart in the source
[13] = guinea pig, 1 h, pH 7.4
[14] = 1 h, pH 7.4; remark: listed apart in the source
[15] = molecular target: hERG channel (Homo sapiens, UniProt Q12809); details: pH 7.4
[16] = mouse, in vivo, 30 mg/kg
[17] = mouse, in vivo, po
[18] = in vivo; details: mouse
[19] = in vitro; details: African green monkey
[20] = tested on: GTOV-p; assay: organism not typed; type: cell-based, Guanarito (GTOV); details: Vero, read-out: GTOV-p EC50
[21] = read-out: EC50 in the plaque assay format
[22] = read-out: EC90 in the VYR assay format

Chain of hERG channel (Q12809 whole entry): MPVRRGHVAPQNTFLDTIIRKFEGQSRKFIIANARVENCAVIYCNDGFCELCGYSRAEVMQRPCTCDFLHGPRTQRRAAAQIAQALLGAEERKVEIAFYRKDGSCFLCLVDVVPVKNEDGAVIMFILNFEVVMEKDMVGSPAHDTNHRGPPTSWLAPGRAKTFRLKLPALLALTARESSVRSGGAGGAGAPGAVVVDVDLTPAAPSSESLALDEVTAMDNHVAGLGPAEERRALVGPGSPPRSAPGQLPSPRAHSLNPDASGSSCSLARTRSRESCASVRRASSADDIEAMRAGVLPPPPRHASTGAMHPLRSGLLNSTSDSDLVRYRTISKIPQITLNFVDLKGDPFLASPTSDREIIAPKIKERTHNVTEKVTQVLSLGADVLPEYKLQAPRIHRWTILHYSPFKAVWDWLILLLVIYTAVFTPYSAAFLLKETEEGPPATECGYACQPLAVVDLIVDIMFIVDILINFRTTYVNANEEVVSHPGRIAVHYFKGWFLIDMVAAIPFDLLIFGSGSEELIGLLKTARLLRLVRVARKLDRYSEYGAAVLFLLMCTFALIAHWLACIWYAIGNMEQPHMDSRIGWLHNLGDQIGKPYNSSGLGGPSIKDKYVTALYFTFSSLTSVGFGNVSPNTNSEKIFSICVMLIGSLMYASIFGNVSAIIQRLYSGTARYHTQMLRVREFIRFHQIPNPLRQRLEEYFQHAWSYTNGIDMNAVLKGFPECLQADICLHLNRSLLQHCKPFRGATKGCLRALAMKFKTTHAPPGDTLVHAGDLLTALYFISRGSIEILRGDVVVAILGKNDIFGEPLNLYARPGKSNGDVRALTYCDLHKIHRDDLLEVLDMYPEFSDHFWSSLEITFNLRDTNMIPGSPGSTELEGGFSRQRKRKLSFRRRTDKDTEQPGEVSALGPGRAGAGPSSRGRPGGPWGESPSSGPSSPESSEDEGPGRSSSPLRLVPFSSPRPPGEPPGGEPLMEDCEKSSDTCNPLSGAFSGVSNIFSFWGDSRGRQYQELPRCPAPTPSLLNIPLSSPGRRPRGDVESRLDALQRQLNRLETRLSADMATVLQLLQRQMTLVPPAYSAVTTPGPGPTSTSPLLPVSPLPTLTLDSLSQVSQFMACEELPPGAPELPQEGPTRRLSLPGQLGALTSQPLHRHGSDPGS

Structure (SMILES) | EC50 [1] [nM] | EC50 [2] [nM] | EC50 [3] [nM] | EC50 ([4]; Vero) [nM] | EC50 [4] [nM] | EC50 [5] [nM] | EC50 [6] [nM] | EC50 [7, 21] [nM] | EC50 ([7]; read-out: Plaque Assay EC50) [nM] | Sl90 [8] | EC90 ([8]; Vero, read-out: VYR Assay EC90) [nM] | EC90 [8, 22] [nM] | Percent parent compound remaining at 60 minutes in liver microsomes, Mouse [9] [%] | Percent parent compound remaining at 60 minutes in liver microsomes, Monkey [10] [%] | Percent parent compound remaining at 60 minutes in liver microsomes, Dog [11] [%] | Percent parent compound remaining at 60 minutes in liver microsomes, Human [12] [%] | Percent parent compound remaining at 60 minutes in liver microsomes, Guinea [13] [%] | Percent parent compound remaining at 60 minutes in liver microsomes, Rat [14] [%] | CC50 [19] [nM] | EC50 [20] [nM] | other results
Cc1cc2ncn(-c3ccc(OC(C)(C)C)cc3)c2cc1-c1ccc(C(C)(C)O)cc1 [Example A1, 2-(4-(1-(4-(tert-butoxy)phenyl)-5-methyl-1H-benzo[d]imidazol-6-yl)phenyl)propan-2-ol] | 0.83 | 0.12 | 0.87 | 0.29 | 0.24 | > 10000 | 0.89 | 1 to 3 | < 3 | >33,000 | < 1 | 1 to 3 | 82.7 | 8.6 | >95 | 68.3 | >95 | 93.8 | 37700 | – | % Inhibition at 3 uM [15]: <10%; Oral C-Max [16]: 20.4 µg/mL; Oral T-Max [16]: 0.5 h; 24 hr liver concentration [17]: 240.3 ug/g liver; 24 hr plasma concentration [17]: 8.8 µg/mL; Vd [18]: 17.6 L/kg; clearance [18]: 0.8 mL/min/kg; AUC(0-t) ([18]; po, 30 mg/kg): 183 µg·h/mL; bioavailability ([18]; po, 30 mg/kg): 35%; half-life ([18]; po, 30 mg/kg): 17 h
Cc1cc2ncn(-c3ccc(OC(C)(C)C)cc3)c2cc1-c1ccc(OC(C)C)cc1 [Example A2, 1-(4-(tert-butoxy)phenyl)-6-(4-isopropoxyphenyl)-5-methyl-1H-benzo[d]imidazole] | 0.38 | 0.14 | 0.15 | 0.15 | 0.12 | > 10000 | 0.33 | 1 to 3 | < 3 | >13,000 | < 1 | 1 to 3 | 93.9 | 53 | >95 | 95 | >95 | >95 | 7300 | 0.05 | –
Cc1cc2ncn(-c3ccc(OC(C)C)cc3)c2cc1-c1ccc(C(C)(C)O)cc1 [Example A3, 2-(4-(1-(4-isopropoxyphenyl)-5-methyl-1H-benzo[d]imidazol-6-yl)phenyl)propan-2-ol] | 0.75 | 0.17 | 0.4 | 0.24 | 0.21 | > 10000 | 0.87 | – | – | – | – | – | 25.4 | – | – | 89.9 | 67.6 | – | 4500 | – | –
Cc1cc2ncc(-c3ccc(OC(C)C)cc3)n2cc1-c1ccc(C(C)(C)O)cc1 [Example B5, 2-(4-(3-(4-isopropoxyphenyl)-7-methylimidazo[1,2-a]pyridin-6-yl)phenyl)propan-2-ol] | 0.53 | 0.16 | 0.18 | 0.16 | 0.1 | > 10000 | 0.88 | – | – | – | – | – | 16.4 | – | – | 86.7 | 7.4 | – | 3870 | – | –
Cc1cc2ncc(-c3ccc(OC(C)(C)C)cc3)n2cc1-c1ccc(C(C)(C)O)cc1 [Example B6, 2-(4-(3-(4-(tert-butoxy)phenyl)-7-methylimidazo[1,2-a]pyridin-6-yl)phenyl)propan-2-ol] | 0.7 | 0.13 | 0.22 | 0.16 | 0.1 | > 10000 | 0.95 | – | – | – | – | – | 81.7 | – | – | 81.5 | 61.5 | – | 4320 | 0.11 | –
